Data: patent publication US20250059203A1, “USE OF ARISTOLOXAZINE C HAVING ANTICANCER ACTIVITY” (KOREA INSTITUTE OF ORIENTAL MEDICINE, priority 2021, published 2025)
Each block holds one molecule with its values, some of them ahead of it.

Columns and labels:
U-87 (glioma) = assay: MTT assay, U-87 cells; assay type: cell-based, human; settings: U-87, 72 h
Experimental: (§1) In order to evaluate the anticancer activity of aristoloxazine isolated in Example 1, the cytotoxic activity against 14 human cancer cell lines including SKMEL5 (melanoma), A431 (non-melanoma skin), PC3 (prostate), A549 (lung), HT1080 (fibrosarcoma), OVCAR3 (ovary), HCT116 (colon), AGS (stomach), HepG2 (liver), MCF7 (breast cancer), K562 (leukemia), U-87 (glioma), ACHN (renal adenocarcinoma) and Caki (clear cell kidney cancer) was evaluated.
(§2) Cells were seeded (1 to 2.5×10^3 cells per well) in 96-well plates and then allowed to settle overnight. Next, the cells were treated with different doses of the compound for 24 hours, 48 hours or 72 hours in a 37° C. CO2 incubator, and 20 μL of MTT ((4,5-dimethylthiazol-2-yl)-2,5-diphenyltetrazolium bromide reagent (Sigma-Aldrich, Inc., St. Louis, MO, USA) was added to each well. After 1 to 2 hours, the medium was discarded, and 100 μL of DMSO (dimethyl sulfoxide, VWR Life Science, Ohio, USA) was added, and then, absorbance was measured at 570 nm by using a Multiskan Skyhigh microplate spectrophotometer (Thermo Scientific, Singapore). 5-FU was used as a positive control. The extract in Table 2 was a 70% ethanol Asarum heterotropoides root extract obtained in the process of preparing the Asarum heterotropoides root fraction of Example 1-2.

[1] = system: 14 human cancer cell lines; assay: MTT assay, panel of all cancer cell lines tested; assay type: cell-based; settings: span over all cancer cell lines tested, read-out: IC50 values, cytotoxicity against all cells that were tested
Experimental: as §1, §2

OVCAR3 (ovarian cancer) = assay: MTT assay, OVCAR3 cells; assay type: cell-based; settings: Homo sapiens, OVCAR-3, OVCAR3, 72 h
Experimental: as §1, §2

PC3 (prostate cancer) = assay: MTT assay, PC3 cells; assay type: cell-based; settings: Homo sapiens, PC-3, PC3, 72 h
Experimental: as §1, §2

[2] = system: Caki (clear cell kidney cancer); assay: MTT assay, Caki cells; assay type: cell-based, human; settings: 72 h
Experimental: as §1, §2

A549 (lung cancer) = assay: MTT assay, A549 cells; assay type: cell-based, human; settings: A549, 72 h
Experimental: as §1, §2

[3] = system: A431 (non-melanoma skin cancer); assay: MTT assay, A431 cells; assay type: cell-based, human
Experimental: as §1, §2

HCT116 (colon cancer) = assay: MTT assay, HCT116 cells; assay type: cell-based, human
Experimental: as §1, §2

K562 (leukemia) = assay: MTT assay, K562 cells; assay type: cell-based, human; settings: K562, 72 h
Experimental: as §1, §2

AGS (stomach cancer) = assay: MTT assay, AGS cells; assay type: cell-based, human; settings: 72 h
Experimental: as §1, §2

[4] = system: ACHN (renal adenocarcinoma); assay: MTT assay, ACHN cells; assay type: cell-based, human; settings: 72 h
Experimental: as §1, §2

SKMEL5 (melanoma) = assay: MTT assay, SKMEL5 cells; assay type: cell-based, human
Experimental: as §1, §2

HepG2 (liver cancer) = assay: MTT assay, HepG2 cells; assay type: cell-based; settings: Homo sapiens, HepG2, 72 h
Experimental: as §1, §2

HT1080 (fibrosarcoma) = assay: MTT assay, HT1080 cells; assay type: cell-based, human
Experimental: as §1, §2

MCF7 (breast cancer) = assay: MTT assay, MCF7 cells; assay type: cell-based; settings: Homo sapiens, MCF7, 72 h
Experimental: as §1, §2

SMILES: COc1cccc2c1[C@H](SCC(N)=O)c1noc(=O)c3cc4c(c-2c13)OCO4 [Aristoloxazine C]
IC50 (U-87 (glioma); Homo sapiens, U-87 MG): 0.0578 ± 0.0055 µM
IC50 [1]: 0.0178 to 0.374 µM
IC50 (OVCAR3 (ovarian cancer)): 0.374 ± 0.012 µM
IC50 (PC3 (prostate cancer)): 0.0843 ± 0.002 µM
IC50 ([2]; Homo sapiens): 0.0654 ± 0.0029 µM
IC50 (A549 (lung cancer); Homo sapiens): 0.0257 ± 0.0007 µM
IC50 ([3]; Homo sapiens, A-431, A431, 72 h): 0.0857 ± 0.0025 µM
IC50 (HCT116 (colon cancer); Homo sapiens, HCT-116, HCT116, 72 h): 0.0293 ± 0.0002 µM
IC50 (K562 (leukemia); Homo sapiens): 0.0786 ± 0.002 µM
IC50 (AGS (stomach cancer); Homo sapiens): 0.0221 ± 0.0008 µM
IC50 ([4]; Homo sapiens): 0.0178 ± 0.0001 µM
IC50 (SKMEL5 (melanoma); Homo sapiens, SK-MEL-5, SKMEL5, 72 h): 0.0721 ± 0.0004 µM
IC50 (HepG2 (liver cancer)): 0.1492 ± 0.0007 µM
IC50 (HT1080 (fibrosarcoma); Homo sapiens, HT-1080, HT1080, 72 h): 0.143 ± 0.0023 µM
IC50 (MCF7 (breast cancer)): 0.0464 ± 0.002 µM

IC50 (U-87 (glioma)): 9 ± 0.2 µM
IC50 [2]: 9.9 ± 0.2 µM
IC50 (A549 (lung cancer)): 2.4 ± 0.1 µM
IC50 ([3]; A431, 72 h): 1 ± 0.03 µM
IC50 (HCT116 (colon cancer); HCT116, 72 h): 3.5 ± 0.1 µM
IC50 (K562 (leukemia)): 6.7 ± 0.2 µM
IC50 (AGS (stomach cancer)): 3.2 ± 0.1 µM
IC50 [4]: 9.1 ± 2.9 µM
IC50 (SKMEL5 (melanoma); SKMEL5, 72 h): 8.4 ± 0.7 µM
IC50 (HT1080 (fibrosarcoma); HT1080, 72 h): 4.9 ± 0.1 µM
SMILES: O=c1[nH]cc(F)c(=O)[nH]1 [Compound 5-FU, 5-FU, reference compound]
